Test results from patent US8507536B2, “Gonadotropin-releasing hormone receptor antagonists and methods relating thereto” (Neurocrine Biosciences, Inc., priority 2007, dated 2013).

These compounds were tested against T1, human GnRH receptor (Homo sapiens, UniProt P30968) (assay: peptide competitive human receptor binding assays (radioligand displacement)). Settings: tested in one or more of the peptide competitive human receptor binding assays.
T1 construct: expressed in transfected cells; membrane preparations
T1 sequence (P30968 1-328): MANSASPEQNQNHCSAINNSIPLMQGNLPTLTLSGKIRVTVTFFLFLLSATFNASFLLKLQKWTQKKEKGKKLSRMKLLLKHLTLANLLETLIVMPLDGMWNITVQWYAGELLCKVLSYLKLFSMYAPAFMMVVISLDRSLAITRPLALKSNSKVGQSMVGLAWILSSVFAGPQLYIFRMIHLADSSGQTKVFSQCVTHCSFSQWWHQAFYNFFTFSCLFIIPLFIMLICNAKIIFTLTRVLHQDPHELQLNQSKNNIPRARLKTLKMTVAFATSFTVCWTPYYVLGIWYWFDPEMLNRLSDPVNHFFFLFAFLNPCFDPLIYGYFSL
Experimental: HEK293 cells stably transfected with the human GnRH receptor are grown for two days after achieving confluence then are harvested by striking tissue culture flasks against a firm surface. Cells are collected by centrifugation at 1000 g for […]. Cell pellets are resuspended in 5% sucrose and homogenized using a polytron homogenizer for two 15 second homogenization steps. Cell homogenates are then centrifuged for 5 minutes at 3000 g to remove nuclei and the supernatant subsequently centrifuged for 30 minutes at 44,000 g to collect the membrane fraction. The membrane pellet is resuspended in GnRH binding buffer (10 mM HEPES, pH 7.5, 150 mM NaCl and 0.1% BSA) and aliquots immediately snap-frozen in liquid nitrogen and stored at −80° C. Protein content of the membrane suspension is determined using the Bio-Rad protein assay kit (Bio-Rad).
RBL cells stably transfected with the human GnRH receptor are grown to 80% confluency prior to harvesting. The cells are incubated at 37° C. for 10 min in 0.5 mM EDTA/PBS (Ca^++, Mg^++ free), and are dislodged from the plate by gentle rapping of the flasks. Cells are collected and pelleted by centrifugation at 1000 g for 5 minutes. Cell pellets are resuspended in buffer (DPBS supplemented with 10 mM MgCl2, 2 mM EGTA, pH=7.4), and cell lysis is performed using a pressure cell and applying N2 at a pressure of 900 psi for 30 min at 4° C. Unbroken cells and larger debris were removed by centrifugation at 1200 g for 10 min at 4° C. The cell membrane supernatant is then centrifuged at 45,000 g and the resulting membrane pellet is resuspended in assay buffer and homogenized on ice using a tissue homogenizer. Protein concentrations are determined using the Coomassie Plus Protein Reagent kit. Membranes are aliquoted and stored at −80° C. until ready for use.
Radioligand binding displacement assays using the peptide radioligands are performed in buffer containing 10 mM HEPES, 150 mM NaCl and 0.1% BSA, pH=7.5. Radioligand binding assays employing the use of [^3H]-1-(2,6-difluorobenzyl)-3-[(2R)-amino-2-phenethyl]-5-(2-fluoro-3-methoxyphenyl)-6-methyluracil (here the 3-methoxy group is tritiated) are run in buffer containing 50 mM Tris, 150 mM NaCl, 5 mM MgCl2, 0.01% saponin and 0.5 mM EDTA, pH=7.5. Radioligand displacement assays are performed by incubating radioligand ([^125I-Tyr^5, DLeu^6, NMeLeu^7, Pro^9-NEt]GnRH (0.1 nM), [His^5, ^125I-DTyr^6]GnRH (0.2 nM) (31) or [^3H]-1-(2,6-difluorobenzyl)-3-[(2R)-amino-2-phenethyl]-5-(2-fluoro-3-methoxyphenyl)-6-methyluracil (1 nM)), unlabeled competitors at concentrations ranging from 0.3 pM to 10 μM, and membranes for 2 hrs at rt. 10 to 20 μg protein/well is used from membrane preparations for human, monkey and rabbit GnRH receptor. 5 μg/well and 60 μg/well of membranes are used for rat and dog GnRH receptors, respectively. Binding assays are performed in either Millipore 96-well GF/C filtration plates (for ([^125I-Tyr^5, DLeu^6, NMeLeu^7, Pro^9-NEt]GnRH assays), or in 96 well low binding plates, which are subsequently filtered onto GF/C Unifilters. Filters are pretreated with 0.5% PEI for 30 min prior to use. Reactions are terminated by rapid vacuum filtration, and the filters are washed twice with 250 μL ice cold PBS pH=7.4 (0.01% Tween-20 is included in wash media for [His^5, ^125I-DTyr^6]GnRH and [^3H]-1-(2,6-difluorobenzyl)-3-[(2R)-amino-2-phenethyl]-5-(2-fluoro-3-methoxyphenyl)-6-methyluracil radioligands). The filters are dried, and the Millipore filters are monitored for radioactivity using a Cobra II gamma counter (Perkin Elmer Life Sciences). For assays filtered onto the GF/C Unifilter plates, 50 μL scintillation fluid is added to each filter, and radioactivity is monitored using a TopCount NXT. For iodinated radioligands, total radioligand is monitored on a gamma counter, and for the tritiated radioligand, total radioligand is monitored using a Perkin Elmer 1600TR liquid scintillation counter. […]

SMILES | Ki [nM]
CC1(C)CCN(S(=O)(=O)c2cc(-c3cnc(C(F)(F)F)cc3C#N)c(Cl)cc2OCCO)c2ccccc21 [Example 11-2, 5-[2-chloro-5-(4,4-dimethyl-3,4-dihydro-2H-quinoline-1-sulfonyl)-4-(2-hydroxy-ethoxy)-phenyl]-2-trifluoromethyl-isonicotinonitrile] | ≤ 100
CC1(C)CCN(S(=O)(=O)c2cc(-c3cnc(C(F)(F)F)cc3C#N)c(Cl)cc2OCCCO)c2ccccc21 [Example 11-3, 5-[2-chloro-5-(4,4-dimethyl-3,4-dihydro-2H-quinoline-1-sulfonyl)-4-(3-hydroxy-propoxy)-phenyl]-2-trifluoromethyl-isonicotinonitrile] | ≤ 100
CC1(C)CCN(S(=O)(=O)c2cc(-c3cnc(C(F)(F)F)cc3C#N)c(Cl)cc2OCCCC(=O)O)c2ccccc21 [Example 12-1, 4-[5-chloro-4-(4-cyano-6-trifluoromethyl-pyridin-3-yl)-2-(4,4-dimethyl-3,4-dihydro-2H-quinoline-1-sulfonyl)-phenoxy]-butyric acid] | ≤ 100
CC1(C)CCN(S(=O)(=O)c2cc(-c3cnc(C(F)(F)F)cc3C#N)c(Cl)cc2OCC(=O)O)c2ccccc21 [Example 12-2, [5-chloro-4-(4-cyano-6-trifluoromethyl-pyridin-3-yl)-2-(4,4-dimethyl-3,4-dihydro-2H-quinoline-1-sulfonyl)-phenoxy]-acetic acid] | ≤ 100
CC1(C)CCN(S(=O)(=O)c2cc(-c3cnc(C(F)(F)F)cc3C#N)c(Cl)cc2OCCC(=O)O)c2ccccc21 [Example 12-3, 3-[5-chloro-4-(4-cyano-6-trifluoromethyl-pyridin-3-yl)-2-(4,4-dimethyl-3,4-dihydro-2H-quinoline-1-sulfonyl)-phenoxy]-propionic acid] | ≤ 100
Cc1cc(C(F)(F)F)nc(=O)n1-c1cc(S(=O)(=O)N2CCCCc3ccccc32)ccc1Cl [Example 13-1, 1-[2-chloro-5-(2,3,4,5-tetrahydro-benzo[b]azepine-1-sulfonyl)-phenyl]-6-methyl-4-trifluoromethyl-1H-pyrimidin-2-one] | ≤ 100
COc1cc(Cl)c(-c2cnc(C(F)(F)F)cc2C#N)cc1S(=O)(=O)N(C)c1ccccc1 [Example 15-1, 4-chloro-5-(4-cyano-6-trifluoromethyl-pyridin-3-yl)-2-methoxy-N-methyl-N-phenyl-benzenesulfonamide] | ≤ 100
COc1cc(Cl)c(-c2cnc(C(F)(F)F)cc2C#N)cc1S(=O)(=O)N1CCC(C)(C)c2ccccc21 [Example 15-2] | ≤ 100
COc1cc(Cl)c(-c2cnc(C(F)(F)F)cc2C#N)cc1S(=O)(=O)N(C)c1cccc(Cl)c1 [Example 15-3] | ≤ 100
COc1cc(Cl)c(-c2cnc(C(F)(F)F)cc2C#N)cc1S(=O)(=O)N(C)c1ccccc1C [Example 15-5] | ≤ 100
COc1cc(Cl)c(-c2cnc(C(F)(F)F)cc2C#N)cc1S(=O)(=O)N(C)c1ccc(F)cc1 [Example 15-6] | ≤ 100
COc1cc(Cl)c(-c2cnc(C(F)(F)F)cc2C#N)cc1S(=O)(=O)N(C)c1ccc(Cl)c(Cl)c1 [Example 15-8] | ≤ 100
COc1cc(Cl)c(-c2cnc(C(F)(F)F)cc2C#N)cc1S(=O)(=O)N(C)c1cccc(C)c1 [Example 15-9] | ≤ 100
COc1cc(Cl)c(-c2cnc(C(F)(F)F)cc2C#N)cc1S(=O)(=O)N(C)c1ccc(Cl)cc1 [Example 15-10] | ≤ 100
COc1cc(Cl)c(-c2cnc(C(F)(F)F)cc2C#N)cc1S(=O)(=O)N(C)c1cccc(F)c1 [Example 15-11] | ≤ 100
COc1cc(Cl)c(-c2cnc(C(F)(F)F)cc2C#N)cc1S(=O)(=O)N(C)c1ccccc1F [Example 15-12] | ≤ 100
COc1cccc(N(C)S(=O)(=O)c2cc(-c3cnc(C(F)(F)F)cc3C#N)c(Cl)cc2OC)c1 [Example 15-14] | ≤ 100
COc1cc(Cl)c(-c2cnc(C(F)(F)F)cc2C#N)cc1S(=O)(=O)N(C)c1c(C)cccc1OC [Example 15-15] | ≤ 100
COc1ccccc1N(C)S(=O)(=O)c1cc(-c2cnc(C(F)(F)F)cc2C#N)c(Cl)cc1OC [Example 15-16] | ≤ 100

SMILES | Ki [nM]
COc1cc(Cl)c(-c2cnc(C(F)(F)F)cc2C#N)cc1S(=O)(=O)N1CCCCc2ccccc21 [Example 15-17] | ≤ 100
COc1cc(Cl)c(-c2cnc(C(F)(F)F)cc2C#N)cc1S(=O)(=O)N(C)c1ccccn1 [Example 15-18] | ≤ 100
COc1cc(Cl)c(-c2cnc(C(F)(F)F)cc2C#N)cc1S(=O)(=O)N(C)c1ncccc1C [Example 15-19] | ≤ 100
COc1cccc(N(C)S(=O)(=O)c2cc(-c3cnc(C(F)(F)F)cc3C#N)c(Cl)cc2OC)n1 [Example 15-20] | ≤ 100
COc1cc(Cl)c(-c2cnc(C(F)(F)F)cc2C#N)cc1S(=O)(=O)N(C)CC(C)C [Example 15-21] | ≤ 100
CCOC(=O)CN(C)S(=O)(=O)c1cc(-c2cnc(C(F)(F)F)cc2C#N)c(Cl)cc1OC [Example 15-26] | ≤ 100
CCCCNS(=O)(=O)c1cc(-c2cnc(C(F)(F)F)cc2C#N)c(Cl)cc1OC [Example 15-28] | ≤ 100
COc1ccccc1CN(C)S(=O)(=O)c1cc(-c2cnc(C(F)(F)F)cc2C#N)c(Cl)cc1OC [Example 15-29] | ≤ 100
COc1cc(Cl)c(-c2cnc(C(F)(F)F)cc2C#N)cc1S(=O)(=O)N(C)CC(C)(C)C [Example 15-30] | ≤ 100
COc1cccc(CN(C)S(=O)(=O)c2cc(-c3cnc(C(F)(F)F)cc3C#N)c(Cl)cc2OC)c1 [Example 15-32] | ≤ 100
COc1cc(Cl)c(-c2cnc(C(F)(F)F)cc2C#N)cc1S(=O)(=O)N(C)Cc1ccc(F)cc1 [Example 15-33] | ≤ 100
COc1cc(Cl)c(-c2cnc(C(F)(F)F)cc2C#N)cc1S(=O)(=O)N(C)Cc1cccc(F)c1 [Example 15-34] | ≤ 100
COc1cc(Cl)c(-c2cnc(C(F)(F)F)cc2C#N)cc1S(=O)(=O)N(C)Cc1ccccc1F [Example 15-35] | ≤ 100
COc1cc(Cl)c(-c2cnc(C(F)(F)F)cc2C#N)cc1S(=O)(=O)N(C)Cc1cccc(C)n1 [Example 15-38] | ≤ 100
COc1cc(Cl)c(-c2cnc(C(F)(F)F)cc2C#N)cc1S(=O)(=O)N(C)Cc1ccco1 [Example 15-39] | ≤ 100
COc1cc(Cl)c(-c2cnc(C(F)(F)F)cc2C#N)cc1S(=O)(=O)N(C)[C@H](C)c1ccccc1 [Example 15-43] | ≤ 100
COc1cc(Cl)c(-c2cnc(C(F)(F)F)cc2C#N)cc1S(=O)(=O)N(C)[C@@H](C)c1ccccc1 [Example 15-44] | ≤ 100
COC(=O)Cc1cc(Cl)c(-c2cnc(C(F)(F)F)cc2C#N)cc1S(=O)(=O)N1CCC(C)(C)c2ccccc21 [Example 16-1, [5-Chloro-4-(4-cyano-6-trifluoromethyl-pyridin-3-yl)-2-(4,4-dimethyl-3,4-dihydro-2H-quinoline-1-sulfonyl)-phenyl]-acetic acid methyl ester] | ≤ 100
